Earlier results in patent publication US8481490B2, “Method of reducing plasma amylase and/or plasma lipase in patients with pancreatitis” (Amylin Pharmaceuticals, LLC, priority 2010, dated 2013).

System: diabetic transgenic HIP rats
Conditions: one rat with histological features of acute pancreatitis

N[C@@H](CC(=O)N1CCn2c(nnc2C(F)(F)F)C1)Cc1cc(F)c(F)cc1F [sitagliptin]
ductal cell turnover and metaplasia: increased ductal cell turnover and metaplasia
